Results: patent US20110004019A1, “Parakeratosis Inhibitor, Pore-Shrinking Agent, Or Rough Skin Inhibiting/Ameliorating Agent, And External Composition For Skin Containing The Same” (SHISEIDO COMPANY LTD., priority 2008, published 2011)

Assays:
[1] = tested on: cheek of sensory person (who has sensitive skin); assay: Sensory Irritation Test; type: in vivo, human; settings: for Evaluation (sensory irritation): 1 mL on cheek, ten minutes; for sensory irritation (Tables 4 and 5): 3 mass %, test subject with sensitive skin
Experimental: Then, the irritating sensation was evaluated every 30 seconds for ten minutes immediately after the application, and a final evaluation was reported (n=2). The evaluation of the irritating sensation was based on the following rating criteria in four levels, and each average rating was calculated to be classified by the following criteria.
3: The test cannot be continued because of extremely strong irritation such as tingly, burning, prickly, and itching sensation. 2: The use is intolerable because of strong irritation such as tingly, burning, prickly, and itching sensation. 1: The use is tolerable though slight irritation such as tingly, burning, prickly, and itching sensation is felt. 0: The irritation is not particularly felt.
A: Average rating is less than 0.2 B: Average rating is 0.2 or greater to less than 1.0 C: Average rating is 1.0 or greater to less than 2.0 D: Average rating is 2.0 or greater

[2] = tested on: back skin of hairless mouse (HR-1) applied with oleic acid; assay: Test for Parakeratosis-Inhibiting Effect (oleic acid applied on the back of hairless mouse; rough skin visual score and parakeratosis value); type: in vivo; settings: for Parakeratosis value (Average for 5 mice): 3.0 mass % sample after 10 mass % oleic acid; for Parakeratosis value (Average for 5 mice) / Parakeratosis value (Average for 4 mice) / Visual observation value (Average for 4 mice): 3 days; for Parakeratosis value (Average for 5 mice) / Parakeratosis value (Average for 4 mice): control = 2.0; for effect of inhibiting parakeratosis (Tables 1 and 2) / effects of inhibiting rough skin such as desquamation and erythema caused by unsaturated fatty acids (text on Table 1): 3 mass %, hairless mouse, oleic acid; for Parakeratosis value (Average for 4 mice) / Visual observation value (Average for 4 mice): 3 mass % sample after 10 mass % oleic acid; for Parakeratosis value (Average for 4 mice): tape-stripped stratum corneum, hematoxylin, higher = more parakeratosis; for Visual observation value (Average for 4 mice): back of hairless mouse, rough skin (desquamation and erythema) score, control = 2.0, no roughness = 0.0
Experimental: 3 mass % test compound aqueous solution (containing 30 mass % ethanol) was primarily prepared as a sample solution. The pH was adjusted with hydrochloric acid or sodium hydroxide so as to be 7.0 to 7.5. When the solubility of test compound was low, the sample solution was prepared depending on the solubility.
100 μl of 10 mass % oleic acid solution (solvent: ethanol) was applied on the back of a hairless mouse (HR-1; Hoshino Laboratory Animals), and then 100 μl of the sample solution was applied thereon. […] In the evaluation, the condition of the skin on which the control (control aqueous solution) was applied set a score of 2.0 and the skin condition without roughness set a score of 0.0. Then, the skin condition was scored by visual observation in increments of 0.25 between them. At the same time, the stratum corneum at the back of the hairless mouse was peeled off with tape, the nuclei were stained by hematoxylin, and the degree of parakeratosis was observed and evaluated using a parakeratosis value within a range of 1.0 to 3.0 (in 0.25 increments). The higher the value is, the more the number of nucleated cell in the stratum corneum is, i.e., the more the parakeratosis is advanced.
The evaluation was conducted according to the plan which was approved in the in-house council on animal experiment, complying with Act on Welfare and Management of Animals and other related acts.

[3] = tested on: back skin of hairless mice (HR-1) applied with oleic acid; assay: Test for Ameliorating Effect to Rough Skin Induced by Applying Oleic Acid (TEWL); type: in vivo; settings: for TEWL value: 3 mass % sample after 10 mass % oleic acid, 3 days, average of four mice, higher = worse rough skin, control = 12.0; for ΔTEWL value compared with the control aqueous solution (text on Table 3): 3 mass %, hairless mice, oleic acid
Experimental: The difference was compared with the control (control aqueous solution), and the effect was determined. […] The TEWL was measured using TEWA Meter TM210 (Courage+Khazaka Electronic GmBH).
100 μl of 10 mass % oleic acid solution (solvent: ethanol) was applied on the back of hairless mice (HR-1, four mice per group), and then 100 μl of the sample solution was applied thereon. The day after this procedure was continued for 3 days, the TEWL value of the back was measured, and the average value of the four mice was calculated. The higher the TEWL value is, the worse rough skin becomes.

[4] = tested on: IL-1α production in human normal keratinocytes; assay: Inhibiting Effect of Increased Production of Inflammatory Cytokine Caused by Oleic Acid; type: cell-based; settings: for IL-lα (pmol/ml, Mean ± S.D.): 8 hours
Experimental: LTD., were incubated using KGM culture medium in a 75 cm^2 flask for 3 days. The cells were trypsinized according to a normal method, collected, and then inoculated into a 24 well plate (Corning Inc.) so as to be 40,000 cells per 0.5 ml of KGM culture medium. After incubation for another 3 days, oleic acid, or oleic acid and test compound, were added thereto. […] As a control, ethanol was added instead of oleic acid. After 8 hours, each culture was collected, and the amount of IL-1α was measured with a quantification kit (from R&D systems).

[5] = 3.0 mass % sample aqueous solution, n=2 (Table 5)
[6] = 3 mass % sample aqueous solution, n=2 (Table 4)

Compound	Evaluation (sensory irritation) [1, 5]	sensory irritation (Tables 4 and 5) [1]	Parakeratosis value (Average for 5 mice) [2]	effect of inhibiting parakeratosis (Tables 1 and 2) [2]	Parakeratosis value (Average for 4 mice) [2]	Visual observation value (Average for 4 mice) [2]	effects of inhibiting rough skin such as desquamation and erythema caused by unsaturated fatty acids (text on Table 1) [2]	TEWL value [3]	ΔTEWL value compared with the control aqueous solution (text on Table 3) [3]	Evaluation (sensory irritation) [1, 6]	also measured
N=C(N)N[C@@H](CCC(=O)O)C(=O)O [N-amidino-L-glutamic acid]	A (Average rating is less than 0.2)	had no problem in sensory irritation	1.1	lowered the parakeratosis value							
CC(=O)N[C@@H](CCC(N)=O)C(=O)O [N-acetyl-L-glutamine, reference compound]			1.9	did not show such effects	1.9	1.9	did not show such effects	13.2	did not show such effects		
CCNC(=O)CC[C@H](NC(C)=O)C(=O)NCC [N-acetyl-N′,N″-diethyl-L-glutamic acid-1,5-diamide]											IL-lα (pmol/ml, Mean ± S.D.) ([4]; 10 μM oleic acid + 500 μM test compound, solvent 4.7 ± 1.5, p < 0.01 vs. oleic acid): 225.5 ± 3.2 pmol/mL; inhibition of the increased production of IL-1α caused by oleic acid (Table 6) ([4]; 10 μM oleic acid, 500 μM (0.012%) compound): significantly inhibits the increased production of IL-1α
N=C(N)NC(CCC(=O)O)C(=O)O (racemic) [N-amidino-DL-glutamic acid]	A (Average rating is less than 0.2)	had no problem in sensory irritation	1.2	lowered the parakeratosis value							
NC(=O)N[C@@H](CCC(=O)O)C(=O)O [N-carbamoyl-L-glutamic acid]		had no problem in sensory irritation			0.7	0.7	showed the effects of inhibiting rough skin	6.4	significantly lowered the ΔTEWL value	A (Average rating is less than 0.2)	
CCCCCCCC/C=C\CCCCCCCC(=O)O [oleic acid, reference compound]											IL-lα (pmol/ml, Mean ± S.D.) ([4]; 10 μM oleic acid alone, solvent (ethanol) 4.7 ± 1.5): 239.8 ± 1.3 pmol/mL
Cl.N=C(N)N[C@@H](CCC(=O)O)C(=O)O [N-amidino-L-glutamic acid hydrochloride]	A (Average rating is less than 0.2)	had no problem in sensory irritation	1.1	lowered the parakeratosis value							
NCCCC(=O)O [γ-aminobutyric acid, reference compound]	C (Average rating is 1.0 or greater to less than 2.0)	resulted in giving sensory irritation								C (Average rating is 1.0 or greater to less than 2.0)	
CC(=O)N[C@@H](CCC(=O)O)C(=O)O [N-acetyl-L-glutamic acid, reference compound]				inferior to those of the compounds of the present invention	1.2	1.2		10.1	inferior to that of the compounds of the present invention		
O=C(O)CC[C@H](NC(=O)OCc1ccccc1)C(=O)O [N-benzyloxycarbonyl-L-glutamic acid]		had no problem in sensory irritation			0.9	0.9	showed the effects of inhibiting rough skin	6.8	significantly lowered the ΔTEWL value	A (Average rating is less than 0.2)	
N=C(N)N[C@@H](CCC(=O)[O-])C(=O)[O-].[Na+].[Na+] [Sodium N-amidino-L-glutamate]	A (Average rating is less than 0.2)	had no problem in sensory irritation	1.1	lowered the parakeratosis value							
N=C(N)N[C@H](CCC(=O)O)C(=O)O [N-amidino-D-glutamic acid]	A (Average rating is less than 0.2)	had no problem in sensory irritation	1.2	lowered the parakeratosis value							
CN[C@@H](CCC(=O)O)C(=O)O [N-methyl-L-glutamic acid]		had no problem in sensory irritation			0.8	0.8	showed the effects of inhibiting rough skin	6.4	significantly lowered the ΔTEWL value	A (Average rating is less than 0.2)	
CNC(CCC(=O)O)C(=O)O (racemic) [N-methyl-DL-glutamic acid]		had no problem in sensory irritation			0.9	0.9	showed the effects of inhibiting rough skin	7.9	significantly lowered the ΔTEWL value	A (Average rating is less than 0.2)	
NC(=O)NCCC[C@H](N)C(=O)O [Citrulline, reference compound]			2.0	did not show such effects							
